Source: article PMC10269561, “Absence of Clinically Meaningful Drug-Drug Interactions with Rezafungin: Outcome of Investigations” (Microbiology Spectrum, 2023)
“Also recorded” adds a separate entry of the source. Numbered stars: 1 amine (or outer) side, 2 acyl side, 3 side chain; on linkers, the order of the positions; unused ones are H or OH. Bridge positions count the residues as written; N and C are the ends. Square brackets hold non-standard residues; d marks the D form. Peptide text beside a SMILES is read from it. * marks the point of attachment. Orn(4R-OH,5R-OCH2CH2NMe3+) = C[N+](C)(C)CCO[C@@H](N[*:3])[C@H](O)C[C@H](N[*:1])C(=O)[*:2]; pTerphenylCO(4''-OnC5H11) = CCCCCOc1ccc(-c2ccc(-c3ccc(C(=O)*)cc3)cc2)cc1; hTyr(3S-OH,4S-OH) = N[C@H](C(=O)O)[C@H](O)[C@@H](O)c1ccc(O)cc1; Pro(3S-OH,4S-Me) = C[C@H]1CN[C@H](C(=O)O)[C@H]1O; Hyp = O=C(O)[C@@H]1C[C@@H](O)CN1

Assays:
[1] = Precipitation in human liver microsome incubations (NC-153); type: physicochemical
Source text: (§1) Microbiology Spectrum Supplementary materials
(§2) Table S 4Summary of initial in vitro assessments […]
(§3) whether rezafungin can induce CYP isoforms 1A2, 2B6, or 3A4. mRNA expression) of CYP1A2 and CYP2B6, and, in the case of […]
(§4) Abbreviations: ABC = ATP binding cassette; BCRP = breast cancer resistance protein; BSEP = bile salt export pump; CYP = cytochrome P450; MATE = multidrug and toxic compound extrusion; MDCK = Madin-Darby canine kidney; MDR = multidrug resistance protein; mRNA = messenger ribonucleic acid; OAT = organic anion transporter; OATP = organic anion transporter protein; OCT – organic cation transporter; OCTN = organic cation transporter novel; P-gp = P-glycoprotein; SLC = solute carrier.

CYP2C8 = biological target: T1, CYP2C8 (Homo sapiens, UniProt P10632); experiment: NC-153 time-dependent inhibition in human liver microsomes, CYP2C8; type: in vitro ADME; parameters: in human liver microsomal preparations; from tissue; host or cells: human liver microsomes; details: 0.1 to 25 μM
T1 sequence (P10632 1-490): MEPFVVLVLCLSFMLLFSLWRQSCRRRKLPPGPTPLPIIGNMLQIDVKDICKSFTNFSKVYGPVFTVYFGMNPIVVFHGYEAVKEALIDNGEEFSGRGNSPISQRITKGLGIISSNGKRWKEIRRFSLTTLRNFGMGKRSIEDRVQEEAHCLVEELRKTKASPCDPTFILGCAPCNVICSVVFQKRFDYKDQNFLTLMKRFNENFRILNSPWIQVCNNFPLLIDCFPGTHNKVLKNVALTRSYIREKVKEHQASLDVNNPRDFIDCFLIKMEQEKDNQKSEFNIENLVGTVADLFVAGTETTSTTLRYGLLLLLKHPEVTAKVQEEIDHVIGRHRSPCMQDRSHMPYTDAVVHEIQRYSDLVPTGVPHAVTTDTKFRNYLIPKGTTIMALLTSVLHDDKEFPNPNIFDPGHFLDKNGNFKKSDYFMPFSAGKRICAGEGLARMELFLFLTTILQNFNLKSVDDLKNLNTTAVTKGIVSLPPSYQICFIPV
Source text: as §1, §2, §3, §4

human P-gp [2] = biological target: T2, human P-gp (Homo sapiens, UniProt P08183); experiment: NC-152 transporter inhibition, P-gp; type: in vitro ADME; details: in vitro cell test system
T2 sequence (P08183 whole entry): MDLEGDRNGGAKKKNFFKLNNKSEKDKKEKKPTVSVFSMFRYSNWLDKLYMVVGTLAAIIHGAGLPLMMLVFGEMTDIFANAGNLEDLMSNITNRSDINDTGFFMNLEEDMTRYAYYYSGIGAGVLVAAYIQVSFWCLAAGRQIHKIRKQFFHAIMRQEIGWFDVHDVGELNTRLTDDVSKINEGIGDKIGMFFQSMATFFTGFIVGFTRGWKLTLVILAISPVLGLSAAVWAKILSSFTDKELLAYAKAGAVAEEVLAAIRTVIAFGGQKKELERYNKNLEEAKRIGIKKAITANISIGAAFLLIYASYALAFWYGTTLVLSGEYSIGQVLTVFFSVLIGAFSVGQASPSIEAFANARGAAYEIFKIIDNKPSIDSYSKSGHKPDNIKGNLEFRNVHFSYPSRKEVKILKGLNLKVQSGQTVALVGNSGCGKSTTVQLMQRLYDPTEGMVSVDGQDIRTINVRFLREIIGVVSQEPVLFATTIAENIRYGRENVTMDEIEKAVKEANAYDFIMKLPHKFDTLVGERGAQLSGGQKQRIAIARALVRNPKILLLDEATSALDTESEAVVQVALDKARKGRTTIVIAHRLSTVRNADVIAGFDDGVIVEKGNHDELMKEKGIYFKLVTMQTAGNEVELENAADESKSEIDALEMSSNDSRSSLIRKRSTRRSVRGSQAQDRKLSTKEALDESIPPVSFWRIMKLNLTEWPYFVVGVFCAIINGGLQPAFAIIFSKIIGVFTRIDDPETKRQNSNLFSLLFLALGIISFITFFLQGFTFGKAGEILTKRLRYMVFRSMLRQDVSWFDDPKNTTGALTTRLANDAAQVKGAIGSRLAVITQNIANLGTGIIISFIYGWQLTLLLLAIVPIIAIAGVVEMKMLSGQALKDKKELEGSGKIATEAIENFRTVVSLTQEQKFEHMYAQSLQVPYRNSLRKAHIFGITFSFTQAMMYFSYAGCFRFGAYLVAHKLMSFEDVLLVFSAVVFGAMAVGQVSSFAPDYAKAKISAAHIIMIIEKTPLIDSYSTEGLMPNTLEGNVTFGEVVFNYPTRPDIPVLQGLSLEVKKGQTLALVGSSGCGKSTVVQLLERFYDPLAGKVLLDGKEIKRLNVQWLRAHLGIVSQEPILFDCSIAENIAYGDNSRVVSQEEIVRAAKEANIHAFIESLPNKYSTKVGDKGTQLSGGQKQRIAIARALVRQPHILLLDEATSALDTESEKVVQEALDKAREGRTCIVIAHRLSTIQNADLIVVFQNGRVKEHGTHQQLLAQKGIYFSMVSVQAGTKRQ
Source text: (§5) Abbreviations: ABC = ATP binding cassette; BCRP = breast cancer resistance protein; BSEP = bile salt export pump; CYP = cytochrome P450; MATE =
(§6) multidrug and toxic compound extrusion; MDCK = Madin-Darby canine kidney; MDR = multidrug resistance protein; mRNA = messenger ribonucleic acid;
(§7) OAT = organic anion transporter; OATP = organic anion transporter protein; OCT – organic cation transporter; OCTN = organic cation transporter novel; P-gp =
(§8) P-glycoprotein; SLC = solute carrier.

OCTN1 = OCTN1 (Homo sapiens, UniProt Q9H015); experiment: NC-160 substrate interaction, OCTN1; type: in vitro ADME; details: uptake SLC transporter
Chain of OCTN1 (Q9H015 whole entry): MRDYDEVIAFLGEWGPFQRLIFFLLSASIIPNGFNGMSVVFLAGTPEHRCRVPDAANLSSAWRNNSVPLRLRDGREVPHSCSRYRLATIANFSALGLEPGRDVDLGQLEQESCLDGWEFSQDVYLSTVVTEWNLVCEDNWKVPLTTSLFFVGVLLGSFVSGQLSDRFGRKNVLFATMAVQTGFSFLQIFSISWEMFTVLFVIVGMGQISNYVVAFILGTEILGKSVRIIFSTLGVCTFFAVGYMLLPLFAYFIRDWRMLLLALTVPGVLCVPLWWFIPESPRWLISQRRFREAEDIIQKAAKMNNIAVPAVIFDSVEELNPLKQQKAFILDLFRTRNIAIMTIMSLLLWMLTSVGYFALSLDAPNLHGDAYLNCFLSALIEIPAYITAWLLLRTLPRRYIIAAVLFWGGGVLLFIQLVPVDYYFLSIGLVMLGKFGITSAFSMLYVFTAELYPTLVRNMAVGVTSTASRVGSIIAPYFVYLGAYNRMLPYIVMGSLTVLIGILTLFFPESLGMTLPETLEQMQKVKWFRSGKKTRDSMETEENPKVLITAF
Source text: as §1, §2, §3, §4

human OATP1B1 [3] = biological target: T3, human OATP1B1 (Homo sapiens, UniProt Q9Y6L6); experiment: NC-152 transporter inhibition, OATP1B1; type: in vitro ADME; details: in vitro cell test system
T3 sequence (Q9Y6L6 whole entry): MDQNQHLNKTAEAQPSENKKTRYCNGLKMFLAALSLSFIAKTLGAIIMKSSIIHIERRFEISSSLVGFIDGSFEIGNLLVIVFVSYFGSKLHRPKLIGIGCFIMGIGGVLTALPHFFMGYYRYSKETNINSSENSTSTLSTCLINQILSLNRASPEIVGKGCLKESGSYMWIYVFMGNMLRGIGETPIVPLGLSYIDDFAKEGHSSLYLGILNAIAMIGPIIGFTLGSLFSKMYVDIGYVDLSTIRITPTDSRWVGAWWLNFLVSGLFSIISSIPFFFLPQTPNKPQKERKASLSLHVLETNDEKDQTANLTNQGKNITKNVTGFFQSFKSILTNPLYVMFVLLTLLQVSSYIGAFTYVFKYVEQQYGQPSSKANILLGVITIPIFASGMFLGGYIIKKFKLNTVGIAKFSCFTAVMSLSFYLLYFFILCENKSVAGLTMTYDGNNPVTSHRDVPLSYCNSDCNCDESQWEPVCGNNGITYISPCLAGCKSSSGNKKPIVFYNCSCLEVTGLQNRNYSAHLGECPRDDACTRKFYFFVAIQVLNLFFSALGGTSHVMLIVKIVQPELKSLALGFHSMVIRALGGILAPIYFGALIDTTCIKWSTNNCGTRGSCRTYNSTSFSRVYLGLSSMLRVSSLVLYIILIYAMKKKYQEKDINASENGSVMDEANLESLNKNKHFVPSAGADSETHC
Source text: as §1, §2, §3, §4

human OATP1B1 [4] = biological target: T3, human OATP1B1; experiment: NC-052 OATP1B1 substrate study in transiently transfected HEK293 cells; type: in vitro ADME
Source text: as §1, §2, §3, §4

CYP3A4 = CYP3A4 (Homo sapiens, UniProt P08684); details: human liver microsomes; midazolam and testosterone as substrates; 0.1 to 25 μM; NC-153
Chain of CYP3A4 (P08684 whole entry): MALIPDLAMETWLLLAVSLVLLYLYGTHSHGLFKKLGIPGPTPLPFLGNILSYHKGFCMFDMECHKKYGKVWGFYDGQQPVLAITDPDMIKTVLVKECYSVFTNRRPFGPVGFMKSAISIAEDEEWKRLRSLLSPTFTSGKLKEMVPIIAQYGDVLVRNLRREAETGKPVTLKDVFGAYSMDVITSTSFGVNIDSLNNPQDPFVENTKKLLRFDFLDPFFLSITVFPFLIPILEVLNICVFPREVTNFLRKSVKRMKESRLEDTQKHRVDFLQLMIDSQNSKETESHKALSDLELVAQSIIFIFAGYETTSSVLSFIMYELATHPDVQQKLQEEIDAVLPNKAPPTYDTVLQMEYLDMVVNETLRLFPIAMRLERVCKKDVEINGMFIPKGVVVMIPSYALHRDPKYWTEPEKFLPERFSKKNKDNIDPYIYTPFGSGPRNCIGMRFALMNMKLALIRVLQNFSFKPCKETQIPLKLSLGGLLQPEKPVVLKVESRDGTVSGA
Source text: as §1, §2, §3, §4

CYP1A2 = CYP1A2 (Homo sapiens, UniProt P05177); details: human liver microsomes; 0.1 to 25 μM; NC-153
Chain of CYP1A2 (P05177 whole entry): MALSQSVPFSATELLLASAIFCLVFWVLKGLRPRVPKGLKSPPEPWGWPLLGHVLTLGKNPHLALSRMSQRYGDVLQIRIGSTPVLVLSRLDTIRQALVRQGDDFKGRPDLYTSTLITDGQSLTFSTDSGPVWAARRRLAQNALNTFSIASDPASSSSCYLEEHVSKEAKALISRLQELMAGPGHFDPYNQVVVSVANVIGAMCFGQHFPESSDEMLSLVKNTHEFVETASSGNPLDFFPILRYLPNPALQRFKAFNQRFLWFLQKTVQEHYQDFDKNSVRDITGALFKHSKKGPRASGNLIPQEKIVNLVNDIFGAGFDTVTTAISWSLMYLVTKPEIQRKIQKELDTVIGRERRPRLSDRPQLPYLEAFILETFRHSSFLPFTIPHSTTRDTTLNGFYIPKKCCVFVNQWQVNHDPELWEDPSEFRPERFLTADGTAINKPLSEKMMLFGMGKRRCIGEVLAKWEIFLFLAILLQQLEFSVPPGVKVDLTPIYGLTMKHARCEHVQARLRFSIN
Source text: as §1, §2, §3, §4

CYP2B6 [5] = biological target: T4, CYP2B6 (Homo sapiens, UniProt P20813); details: human liver microsomes; 0.1 to 25 μM; NC-153
T4 sequence (P20813 whole entry): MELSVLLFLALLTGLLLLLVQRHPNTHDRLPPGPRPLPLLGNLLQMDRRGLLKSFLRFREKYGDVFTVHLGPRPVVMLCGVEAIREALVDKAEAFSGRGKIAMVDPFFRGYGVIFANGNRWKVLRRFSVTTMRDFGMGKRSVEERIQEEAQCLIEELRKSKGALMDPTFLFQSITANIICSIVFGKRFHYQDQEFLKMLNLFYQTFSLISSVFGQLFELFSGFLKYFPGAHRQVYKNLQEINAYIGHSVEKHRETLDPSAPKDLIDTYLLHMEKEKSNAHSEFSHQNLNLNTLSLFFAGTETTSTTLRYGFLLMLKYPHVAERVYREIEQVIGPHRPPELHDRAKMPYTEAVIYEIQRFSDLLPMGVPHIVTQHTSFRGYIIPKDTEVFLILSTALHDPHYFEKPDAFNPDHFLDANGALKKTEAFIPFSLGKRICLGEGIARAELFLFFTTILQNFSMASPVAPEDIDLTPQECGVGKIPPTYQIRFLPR
Source text: as §1, §2, §3, §4

OCT1 = biological target: T5, OCT1 (Homo sapiens, UniProt O15245); experiment: NC-160 substrate interaction, OCT1; type: in vitro ADME; details: uptake SLC transporter
T5 sequence (O15245 1-554): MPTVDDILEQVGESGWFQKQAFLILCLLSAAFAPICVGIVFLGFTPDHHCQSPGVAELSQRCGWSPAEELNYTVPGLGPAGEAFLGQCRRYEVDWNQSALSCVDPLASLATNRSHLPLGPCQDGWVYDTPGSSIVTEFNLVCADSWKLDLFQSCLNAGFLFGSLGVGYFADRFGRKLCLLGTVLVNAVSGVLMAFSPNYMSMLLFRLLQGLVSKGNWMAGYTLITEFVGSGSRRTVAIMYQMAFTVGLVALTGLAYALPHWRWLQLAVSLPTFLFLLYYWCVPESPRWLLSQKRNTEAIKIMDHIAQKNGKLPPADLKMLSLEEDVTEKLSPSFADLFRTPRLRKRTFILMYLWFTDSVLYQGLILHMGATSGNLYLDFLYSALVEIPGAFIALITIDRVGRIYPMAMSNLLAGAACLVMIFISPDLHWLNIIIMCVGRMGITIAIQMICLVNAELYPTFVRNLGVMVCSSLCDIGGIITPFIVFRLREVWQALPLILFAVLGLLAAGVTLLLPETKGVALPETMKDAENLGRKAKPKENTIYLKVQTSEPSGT
Source text: as §1, §2, §3, §4

human OATP1B3 = human OATP1B3 (Homo sapiens, UniProt Q9NPD5); experiment: NC-152 transporter inhibition, OATP1B3; type: in vitro ADME
Chain of human OATP1B3 (Q9NPD5 whole entry): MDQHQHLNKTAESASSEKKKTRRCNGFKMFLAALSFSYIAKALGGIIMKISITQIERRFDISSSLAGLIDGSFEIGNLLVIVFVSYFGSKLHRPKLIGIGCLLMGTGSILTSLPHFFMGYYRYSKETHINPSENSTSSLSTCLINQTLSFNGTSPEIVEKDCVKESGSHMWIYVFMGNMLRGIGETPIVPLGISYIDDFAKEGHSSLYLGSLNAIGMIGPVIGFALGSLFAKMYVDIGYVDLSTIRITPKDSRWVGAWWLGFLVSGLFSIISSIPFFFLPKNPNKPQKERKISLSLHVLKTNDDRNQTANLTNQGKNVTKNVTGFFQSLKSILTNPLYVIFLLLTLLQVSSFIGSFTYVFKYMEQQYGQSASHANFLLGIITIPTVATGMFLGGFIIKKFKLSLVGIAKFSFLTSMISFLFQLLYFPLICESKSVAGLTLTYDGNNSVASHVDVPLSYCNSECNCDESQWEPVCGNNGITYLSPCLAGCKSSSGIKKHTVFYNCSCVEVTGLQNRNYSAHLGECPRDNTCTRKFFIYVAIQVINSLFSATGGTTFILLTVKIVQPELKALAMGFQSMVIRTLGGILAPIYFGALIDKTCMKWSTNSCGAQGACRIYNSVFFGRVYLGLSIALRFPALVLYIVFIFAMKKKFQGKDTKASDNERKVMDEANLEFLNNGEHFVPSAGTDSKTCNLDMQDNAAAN
Source text: as §5, §6, §7, §8

CYP2B6 [6] = biological target: T4, CYP2B6; experiment: NC-012 CYP450 inhibition screening, recombinant CYP2B6; type: in vitro ADME; details: 10 μM, fluorogenic substrate, recombinant human CYP
Source text: as §1, §2, §3, §4

human P-gp [7] = biological target: T2, human P-gp; experiment: NC-049 P-gp substrate potential in Caco-2 monolayers; type: in vitro ADME; details: with/without inhibitors
Source text: as §1, §2, §3, §4

BCRP = BCRP (Homo sapiens, UniProt Q9UNQ0); experiment: NC-160 substrate interaction, BCRP; type: in vitro ADME; details: efflux (ABC) transporter
Source text: as §1, §2, §3, §4

human OCT2 = human OCT2 (Homo sapiens, UniProt O15244); experiment: NC-152 transporter inhibition, OCT2; type: in vitro ADME; details: in vitro cell test system
Source text: as §1, §2, §3, §4

CCCCCOc1ccc(-c2ccc(-c3ccc(C(=O)N[C@H]4C[C@@H](O)[C@@H](OCC[N+](C)(C)C)NC(=O)[C@@H]5[C@@H](O)[C@@H](C)CN5C(=O)[C@H]([C@@H](C)O)NC(=O)[C@H]([C@H](O)[C@@H](O)c5ccc(O)cc5)NC(=O)[C@@H]5C[C@@H](O)CN5C(=O)[C@H]([C@@H](C)O)NC4=O)cc3)cc2)cc1 [Rezafungin] ({pTerphenylCO(4''-OnC5H11)}-[Orn(4R-OH,5R-OCH2CH2NMe3+)]T[Hyp][hTyr(3S-OH,4S-OH)]T[Pro(3S-OH,4S-Me)]; lactam 1-C)
concentration at which precipitation occurred [1]: ≥ 25 µM | time-dependent inhibitor of CYP2C8 (CYP2C8): not a time-dependent inhibitor | inhibitor of probe substrate transport mediated via P-gp (human P-gp [2]): determined to be an inhibitor; also recorded: could not be ruled out | substrate of OCTN1 (OCTN1): not a substrate | inhibitor of probe substrate transport mediated via OATP1B1 (human OATP1B1 [3]): determined to be an inhibitor | substrate of OATP1B1 (human OATP1B1 [4]): not to be a substrate | uptake ratio, OATP1B1 (human OATP1B1 [4]): < 2 | time-dependent inhibitor of CYP3A4 (CYP3A4): not a time-dependent inhibitor | time-dependent inhibitor of CYP1A2 (CYP1A2): not a time-dependent inhibitor | time-dependent inhibitor of CYP2B6 (CYP2B6 [5]): not a time-dependent inhibitor | substrate of OCT1 (OCT1): not a substrate | inhibitor of probe substrate transport mediated via OATP1B3 (human OATP1B3; in vitro cell test system, NC-152): determined to be an inhibitor | IC50 (human OATP1B3; initial in vitro studies, read-out: IC50, OATP-1B3 uptake transporter (moderate inhibition)): > 6 µM | inhibition of CYP2B6 (CYP2B6 [6]): Minimal inhibition | substrate of P-gp (human P-gp [7]): not a substrate | substrate of BCRP (BCRP): not a substrate | inhibitor of probe substrate transport mediated via OCT2 (human OCT2): determined to be an inhibitor
